US8440710B2, “HSL inhibitors useful in the treatment of diabetes” (Hoffmann-La Roche Inc., priority 2009, dated 2013)

molecular target: T1, human HSL (Homo sapiens, UniProt Q05469); assay: Human Hormone-Sensitive Lipase (HSL) enzyme inhibition assay (colorimetric, DMPT substrate); type: biochemical; conditions: human full length HSL-His6, 2,3-dimercapto-1-propanol tributyrate substrate, 37° C. 20 minutes, absorbance at 405 nm; read-out: HSL hum IC50
T1 construct: generate a full length human HSL ORF with a 3′-His6 tag; made in house; host or cells: High 5 insect cells (baculovirus, pFast-BAC)
T1 sequence (Q05469 1-1076): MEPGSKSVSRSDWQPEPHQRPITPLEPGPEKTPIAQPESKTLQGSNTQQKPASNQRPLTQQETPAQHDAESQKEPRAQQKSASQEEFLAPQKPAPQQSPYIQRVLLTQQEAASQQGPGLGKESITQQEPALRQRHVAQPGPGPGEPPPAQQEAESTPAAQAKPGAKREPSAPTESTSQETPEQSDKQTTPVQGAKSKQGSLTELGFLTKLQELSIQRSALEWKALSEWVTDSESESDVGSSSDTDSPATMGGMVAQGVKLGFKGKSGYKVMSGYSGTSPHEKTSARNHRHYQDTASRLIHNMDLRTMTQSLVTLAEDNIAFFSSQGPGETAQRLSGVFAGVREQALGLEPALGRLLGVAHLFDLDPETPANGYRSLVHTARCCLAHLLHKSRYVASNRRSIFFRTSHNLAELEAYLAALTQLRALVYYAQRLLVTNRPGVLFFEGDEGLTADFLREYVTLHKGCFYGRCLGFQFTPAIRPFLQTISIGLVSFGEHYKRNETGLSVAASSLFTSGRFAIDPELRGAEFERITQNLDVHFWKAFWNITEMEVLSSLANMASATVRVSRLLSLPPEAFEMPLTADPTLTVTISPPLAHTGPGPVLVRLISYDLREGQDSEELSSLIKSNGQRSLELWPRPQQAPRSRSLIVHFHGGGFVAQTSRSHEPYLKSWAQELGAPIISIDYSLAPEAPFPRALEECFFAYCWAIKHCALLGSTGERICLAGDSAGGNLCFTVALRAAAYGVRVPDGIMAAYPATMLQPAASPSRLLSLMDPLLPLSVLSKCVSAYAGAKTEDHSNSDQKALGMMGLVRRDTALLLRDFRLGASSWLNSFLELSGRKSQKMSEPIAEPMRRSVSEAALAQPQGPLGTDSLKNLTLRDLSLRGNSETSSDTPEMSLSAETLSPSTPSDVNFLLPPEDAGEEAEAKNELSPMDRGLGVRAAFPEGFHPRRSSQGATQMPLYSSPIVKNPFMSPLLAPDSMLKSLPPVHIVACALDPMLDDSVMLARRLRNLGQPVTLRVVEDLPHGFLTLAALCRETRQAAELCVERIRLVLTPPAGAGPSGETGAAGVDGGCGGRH
Description: Production of Human Full Length Hormone Sensitive Lipase-His^6:
1) Cloning: cDNA was prepared from commercial human brain polyA+ RNA and used as a template in overlapping PCR to generate a full length human HSL ORF with a 3′-His6 tag. This full length insert was cloned into the pFast-BAC vector and the DNA-sequence of several single clones was verified. DNA from a correct full length clone with the 3′His6 tag was used to transform the E. coli strain DH10BAC. Resulting bacmid DNA was used to generate a titered baculovirus stock for protein generation. The sequence of the encoded HSL conforms to Swissprot entry Q05469, with the additional C-terminal His6-tag. 2) Protein purification: Culture: 5.5 L, High 5 cells expressing human full length HSL-His^6, 48 hr., containing 25 μM E-64. Cell count: […], 90% viable. Cells were thawed. On ice, cells were suspended in Base Buffer containing 10% glycerol, 25 mM Tris-Cl, 300 mM NaCl, 10 mM imidazole, 10 mM 2-mercaptoethanol, 2 μg pepstatin/ml, 2 μg leupeptin/ml, 2 μg antipain/ml, pH 8.0 at 4° C. in a final volume of 475 ml with 3.75×10^7 cells/ml. […] was done at 3×30 sec., Lubrol PX was added to 0.2% final concentration followed by stirring for 15 min. at 4° C. and centrifugation at 25 k×g, 60 min., 4° C. Soluble proteins were mixed with 60 ml of pre-washed and equilibrated Ni-NTA Agarose (Qiagen 30210) followed by tumbling end-over-end, 45 min., 4° C., centrifugation 1000 rpm 5 min and letting resin settle 5 min. Supernatant was removed, the resin washed in the centrifuge vessel using 5 volumes of Base Buffer containing 0.2% Lubrol PX. Centrifugation was done again, then the supernatant discarded. The resin was poured onto a 0.8 μm membrane in a disposable filter unit (Nalge 450-0080), and washed with 5 volumes of Base Buffer containing 0.2% Lubrol PX. It was then washed with 30 volumes of Base Buffer containing 60 mM imidazole pH 7.5 at 4° C. The protein was eluated with 5 volumes of 25 mM Tris-Cl, 300 mM NaCl, 200 mM imidazole, 10 mM 2-mercaptoethanol, pH 7.5 at 4° C. by tumbling resin with buffer end-over-end, 30 min., 4° C. The resin was captured on a 0.2 μm membrane disposable filter unit (Millipore SCGP U02 RE) and the eluate collected in the reservoir. The eluate was concentrated using a 30 k MWCO centrifugal filter device (Sartorius Vivascience Vivacell 100, VC1022), to 20 ml. It was then dialyzed overnight at 4° C., two times against 2 L of 10% glycerol, 25 mM Tris-Cl, 300 mM NaCl, 0.2 mM EDTA, 0.2 mM DTT, pH 7.5 at 4° C. The protein was filtered using a 0.22 μm disposable filter unit (Millipore SCGP00525). The protein concentration was calculated from absorbance at 280 nm, using 280=0.67 cm-1 mg-1. Yield was 235 mg, total. The protein was stored at −80° C. Human Hormone-Sensitive Lipase (HSL) Enzyme Inhibition Assay:
HSL enzyme activity was measured by a colorimetric assay using 2,3-dimercapto-1-propanol tributyrate (Aldrich, St. Louis, Mo.) as a substrate. Typically, 1.5 mM 2,3-dimercapto-1-propanol tributyrate (DMPT) in 100 mM MOPS, pH 7.2, 0.2 mg/ml fatty acid-free BSA was prepared by sonication at 4° C. to homogenous suspension. Test compounds (2 mM stock in DMSO) were diluted 3 fold in series in DMSO. Compound solutions were diluted 24 fold in 1.5 mM DMPT containing solution and 18 ul per well was added to 384-well microplates (Corning Costar). Twelve microliters per well of human HSL (15 ug/ml) was added and the reaction mixture was incubated at 37° C. for 20 minutes. Six microliters of 12 mM dithio-bis-(2-nitrobenzoic acid) (DTNB) in DMSO plus 1.2% SDS and 0.6% Triton X-100 were added and the mixture was incubated at room temperature for 15 minutes. Product production was monitored by reading absorbance at 405 nm on an Envision Reader (PerkinElmer Life and Analytical Sciences, Shelton, Conn.).

Row | Compound | IC50 [nM]
1 | CCCC[C@]1(O)CC[C@@]2(CCN(c3ccc(OCCOC)cc3)C2=O)CC1 [Example 97, (5α,8β)-8-Butyl-8-hydroxy-2-[4-(2-methoxy-ethoxy)-phenyl]-2-aza-spiro[4.5]decan-1-one] | 1820
2 | O=C1N(c2ccc(C3CC(F)(F)C3)cc2)CC[C@]12CC[C@](O)(C(F)(F)F)CC2 [Example 341, (5α,8β)-2-[4-(3,3-Difluoro-cyclobutyl)-phenyl]-8-hydroxy-8-trifluoromethyl-2-aza-spiro[4.5]decan-1-one] | 1350
3 | O=C1N(c2ccc([C@@H](O)C(F)(F)F)cc2)CC[C@]12CC[C@@](O)(CCC(F)(F)F)CC2 [Example 194, (5α,8α)-8-hydroxy-2-(4-((R)-2,2,2-trifluoro-1-hydroxyethyl)phenyl)-8-(3,3,3-trifluoropropyl)-2-aza-spiro[4.5]decan-1-one] | 20
4 | CCc1ccc(CCN2CC[C@]3(CC[C@@](O)(COC)CC3)C2=O)cc1 [Example 373, (5α,8α)-2-[2-(4-Ethyl-phenyl)-ethyl]-8-hydroxy-8-methoxymethyl-2-aza-spiro[4.5]decan-1-one] | 70
5 | O=C1N(c2ccc(OCC(F)(F)F)cc2)CC[C@]12CC[C@](O)(COCC1CC1)CC2 [Example 256, (5α,8β)-8-[(Cyclopropylmethoxy)methyl]-8-hydroxy-2-[4-(2,2,2-trifluoro-ethoxy)-phenyl]-2-aza-spiro[4.5]decan-1-one] | 690
6 | CCc1ccc(N2CC[C@]3(CC[C@H](O)CC3)C2=O)cc1 [Example 32, (5α,8α)-2-(4-Ethyl-phenyl)-8-hydroxy-2-aza-spiro[4.5]decan-1-one] | 900
7 | CO[C@H](c1ccc(N2CC[C@]3(CC[C@@](O)(COCC(F)(F)F)CC3)C2=O)cc1)C(F)(F)F [Example 372, (5α,8α)-8-Hydroxy-8-(2,2,2-trifluoro-ethoxymethyl)-2-[4-((R)-2,2,2-trifluoro-1-methoxy-ethyl)-phenyl]-2-aza-spiro[4.5]decan-1-one] | 17
8 | CC(C)(C)c1ccc(N2CCC3(CCC(O)(Cn4ccccc4=O)CC3)C2=O)cc1 (stereo not drawn) [Example 353, (5α,8α)-2-(4-tert-Butyl-phenyl)-8-hydroxy-8-(2-oxo-2H-pyridin-1-ylmethyl)-2-aza-spiro[4.5]decan-1-one] | 10
9 | CC(C)SC[C@]1(O)CC[C@]2(CCN(c3ccc(OCC(F)(F)F)cc3)C2=O)CC1 [Example 306, (5α,8α)-8-Hydroxy-8-isopropylsulfanylmethyl-2-[4-(2,2,2-trifluoro-ethoxy)-phenyl]-2-aza-spiro[4.5]decan-1-one] | 10
10 | CC(C)[C@]1(O)CC[C@]2(CCN(c3ccc(C(O)C(C)(F)F)cc3)C2=O)CC1 (stereo partly drawn) [Example 191, (5α,8α)-2-(4-(2,2-difluoro-1-hydroxypropyl)phenyl)-8-hydroxy-8-isopropyl-2-aza-spiro[4.5]decan-1-one] | 50
11 | O=C1N(c2ccc(OC(F)(F)F)cc2)CC[C@]12CC[C@@H]([S+]([O-])c1ccccc1)CC2 (stereo partly drawn) [Example 51, (5α,8β)-8-Benzenesulfinyl-2-(4-trifluoromethoxy-phenyl)-2-aza-spiro[4.5]decan-1-one] | 20
12 | CCC[C@]1(O)CC[C@]2(CCN(c3ccc(OCC(F)(F)F)nc3)C2=O)CC1 [Example 167, (5α,8α)-8-Hydroxy-8-propyl-2-[6-(2,2,2-trifluoro-ethoxy)-pyridin-3-yl]-2-aza-spiro[4.5]decan-1-one] | 40
13 | CC(Oc1ccc(N2CCC3(CCC(O)CC3)C2=O)cc1)C(F)(F)F (mixture of isomers) [Example 162, 8-Hydroxy-2-[4-(2,2,2-trifluoro-1-methyl-ethoxy)-phenyl]-2-aza-spiro[4.5]decan-1-one] | 220
14 | O=C1N(c2ccc(OCC(F)(F)F)nc2)CC[C@]12CC[C@@](O)(C(F)(F)F)CC2 [Example 178, (5α,8α)-8-Hydroxy-2-[6-(2,2,2-trifluoro-ethoxy)-pyridin-3-yl]-8-trifluoromethyl-2-aza-spiro[4.5]decan-1-one] | 150
15 | CCc1ccc(N2CC[C@]3(CC[C@@](O)(COCCOC)CC3)C2=O)cc1 [Example 229, (5α,8α)-2-(4-Ethyl-phenyl)-8-hydroxy-8-(2-methoxy-ethoxymethyl)-2-aza-spiro[4.5]decan-1-one] | 130
16 | O=C1N(c2ccc(OC(F)(F)F)cc2)CC[C@]12CC[C@@H](O)CC2 [Example 1, (5α,8β)-8-Hydroxy-2-(4-trifluoromethoxy-phenyl)-2-aza-spiro[4.5]decan-1-one] | 470
17 | CC(C)[S+]([O-])C[C@]1(O)CC[C@]2(CCN(c3ccc(OCC(F)(F)F)cc3)C2=O)CC1 (stereo partly drawn) [Example 317, (5α,8α)-8-Hydroxy-8-(propane-2-sulfinylmethyl)-2-[4-(2,2,2-trifluoro-ethoxy)-phenyl]-2-aza-spiro[4.5]decan-1-one] | 200
18 | CCOC[C@]1(O)CC[C@]2(CCN(c3ccc(OC(F)(F)F)cc3)C2=O)CC1 [Example 117, (5α,8α)-8-Ethoxymethyl-8-hydroxy-2-(4-trifluoromethoxy-phenyl)-2-aza-spiro[4.5]decan-1-one] | 20
19 | CC(C)S(=O)(=O)C[C@]1(O)CC[C@]2(CCN(c3ccc(C(C)(C)C)cc3)C2=O)CC1 [Example 333, (5α,8α)-2-(4-tert-Butyl-phenyl)-8-hydroxy-8-(propane-2-sulfonylmethyl)-2-aza-spiro[4.5]decan-1-one] | 8
20 | COC[C@]1(O)CC[C@]2(CCN(c3ccc(OC(C)C)cc3)C2=O)CC1 [Example 210, (5α,8α)-8-hydroxy-2-(4-isopropoxyphenyl)-8-(methoxymethyl)-2-aza-spiro[4.5]decan-1-one] | 50
